Reference: patent publication US12479858B2, “Macrocyclic compounds as sting agonists and methods and uses thereof” (Lupin Limited, priority 2019, dated 2025)
Counter-ions that a name gives are not always drawn. Like-named read-outs stand apart in the source and are kept apart here.

Legend:
CD3^+CD8^+ T cells = test: Estimation of immune cell infiltration in tumors (flow cytometry); type: in vivo, Balb/c mice; details: for % CD3^+CD8^+ T cells: infiltration in tumor, 96 h post treatment, 0.375 mg/kg single i.v.; for % CD3^+CD8^+ T cells infiltrating the tumor as compared to the vehicle-treated group: single i.v. dose of 0.375 mg/kg, 96 h post treatment initiation
Description: Estimation of immune cell infiltration in tumors: CT-26 tumor-bearing Balb/c mice were treated intravenously with 0.375 mg/kg of test compounds and blood and tumors were processed for analysis of CD8^+, CD3^+ and CD45^+ T cells at 24 h and 96 h after start of treatment. Blood samples were subjected to RBC lysis and the cells were recovered by centrifugation. Following wash with PBS, the cells were blocked using TruStain FcX™ blocking antibody and stained with fluorophore-tagged anti-CD45, anti-CD3 and anti-CD8 antibodies. Tumor samples were minced and subjected to tissue digestion using freshly prepared collagenase-IV solution (1 mg/ml) containing DNase (0.05 mg/ml) for 1-1.5 h at 37° C. and 150-200 rpm. Single cell suspension was prepared by filtering it through a 100 μm mesh and checked for cell viability. Cells were stained with various antibodies as mentioned above. The distinct T cell subsets were analysed on FACS Canto II (BD) and percentage of each population was calculated after initial gating of CD45^+ lymphocyte population.

[1] = system: Interferon beta (IFNβ), interleukin-6 (IL-6) and tumor necrosis factor alpha (TNFα); test: Serum and tumor cytokine levels in CT26 tumor-bearing mice (ELISA); type: in vivo, BALB/c mice; details: 0.375 mg/kg single i.v.
Description: (§1) Pharmacokinetic and Pharmacodynamic Profiling and Estimation of Immune Cell Infiltration in Tumors Following Treatment with Compounds 2, 6, 8, 12 and 14
(§2) Serum and tumor cytokine levels and corresponding compound concentrations in mouse plasma were determined following single-dose intravenous administration in CT26 (murine colorectal carcinoma) tumor-bearing mice. Briefly, naïve BALB/c mice in the age group of 6-8 weeks were inoculated with 0.1 million CT-26 cells/animal in phosphate buffered saline (PBS), subcutaneously. […] Blood and tumor samples were harvested at various time points up to 24 h post-dose. Tumor samples were homogenized and prepared for cytokine estimation (ELISA) and compound concentration were determined by LC-MS/MS. Serum aliquots and tumor samples were snap-frozen and stored at −80° C. till further analysis. Serum and tumor samples were evaluated for Interferon beta (IFNβ), interleukin-6 (IL-6) and tumor necrosis factor alpha (TNFα) by enzyme linked immunosorbent assay (ELISA) using kits from R & D systems (Quantikine mouse IL-6 and TNFα kits) and PBL biosciences (Verikine mouse IFNβ kit).
Cytokine analysis from mouse serum samples: For IL-6 and TNFα estimation, 50 μL of test samples or internal standard or control were applied to wells in duplicates and incubated for 2 h at room temperature, followed by aspiration and washing four times with 400 μL of wash buffer. 100 μL of mouse IL-6 or TNFα conjugate solution was added and incubated further for 2 h at room temperature and followed later by 4 wash cycles. 100 μL of substrate solution was added to each well with addition of stop solution after 30 min. Optical density was measured at 450 nm averaged and was used for further calculations following subtraction of respective blank controls. Cytokine concentrations were determined by interpolating the optical density of samples into the reference standard curve utilizing four parameter logistic (4-PL) curve-fit. Cytokine concentrations were normalized with their respective dilution factors and represented in pg/mL. For IFNβ estimation, 100 μL test sample or internal standard or controls were applied to the wells in duplicates and incubated for 1 h at room temperature followed by three washes and addition of the anti-mouse IFNβ antibody solution with further 1 h incubation. This was followed by addition of horseradish peroxidase (HRP) solution and three washes, later addition of TMB substrate and reading the optical density at 450 nm. Optical densities were blank-subtracted and interpolated to the reference standard utilizing the four parameter logistic (4-PL) curve-fit. Cytokine concentrations were normalized with their respective dilution factors and represented in pg/mL. Tables 4 and 5 indicate cytokine levels for compounds 2, 6, 8, 12, and 14 in serum and tumor at different administered doses.
Cytokine analysis from tumor samples: Tumor samples were homogenized in a bead-based homogenizer and lysates were prepared with buffer supplemented with 1% Triton X-100 and protease inhibitors. Cytokine levels were estimated by ELISA and expressed as pg/g tumor.

[2] = Apparent solubility/extended kinetic solubility by UHPLC; type: physicochemical; details: aqueous buffer, thermodynamic from solid, phosphate buffer, 37° C.
Outline: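 About 0.5 mg solid sample, in duplicate, with 5 μL DMSO and 1 mL phosphate buffer, shaken 24 hrs at 37° C, then cooled and centrifuged. Supernatant quantified by UHPLC against a calibration curve; solubility reported in μM.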

[3] = Plasma and tumor compound concentrations in CT26 tumor-bearing mice (LC-MS/MS); type: in vivo, BALB/c mice; details: 0.375 mg/kg single i.v.; for concentration at 3.5 h / concentration at 8 h / concentration at 12 h / concentration at 24 h: BALB/c, mouse, intravenous; for concentration at 3.5 h: 3.5 h (Table 4); for concentration at 8 h: 8 h (Table 4); for concentration at 12 h: 12 h (Table 4)
Description: as §1, §2
Bioanalysis of plasma and tumor samples: Plasma and tumor concentrations of test compounds were determined by LC-MS/MS method. Tumor samples were homogenized utilizing a bead-based homogenizer. Plasma samples and tumor homogenates were extracted using protein precipitation method with organic solution containing respective internal standards. Plasma and tumor concentrations were determined against respective calibration curve. Table 3 indicates the concentration of Compound 2 in plasma and tumor at different administered doses. Table 4 indicates the concentration of Compounds 6, 8, 12, and 14 in plasma and tumor at different administered doses. Table 5 indicates cytokine levels for Compound 2 in serum and tumor at different doses. Table 6 indicates cytokine levels for Compounds 6, 8, 12 and 14 in serum and tumor at 0.375 mpk.

[4] = tumor, 24 h (Table 4), read-out: Tumor Conc.

Row | SMILES | % CD3^+CD8^+ T cells (CD3^+CD8^+ T cells) [%] | % CD3^+CD8^+ T cells infiltrating the tumor as compared to the vehicle-treated group (CD3^+CD8^+ T cells) | Serum IFNβ ([1]; 3.5 h (Table 6)) [pg/mL] | Tumor IFNβ ([1]; 3.5 h (Table 6)) [pg/g tumor] | Serum IFNβ ([1]; 8 h (Table 6)) [pg/mL] | Tumor IFNβ ([1]; 8 h (Table 6)) [pg/g tumor] | Serum IFNβ ([1]; 12 h (Table 6)) | Tumor IFNβ ([1]; 12 h (Table 6)) [pg/g tumor] | Serum IFNβ ([1]; 24 h (Table 6)) | Tumor IFNβ ([1]; 24 h (Table 6)) [pg/g tumor] | solubility at 24 h [2] [mM] | concentration at 3.5 h ([3]; plasma, read-out: Plasma Conc.) [nM] | concentration at 8 h ([3]; plasma, read-out: Plasma Conc.) [nM] | concentration at 12 h ([3]; plasma, read-out: Plasma Conc.) [nM] | concentration at 3.5 h ([3]; tumor, read-out: Tumor Conc.) [nM] | concentration at 8 h ([3]; tumor, read-out: Tumor Conc.) [nM] | concentration at 12 h ([3]; tumor, read-out: Tumor Conc.) [nM] | concentration at 24 h [3, 4] [nM] | Plasma Conc. ([3]; 24 h (Table 4)) | other results
1 | CCn1nc(C)cc1C(=O)Nc1nc2cc(C(N)=O)cc3c2n1C/C=C/Cn1c(NC(=O)c2cc(C)nn2CC)nc2cc(C(=O)N[C@H]4CC[C@H](c5nnn[nH]5)CC4)cc(c21)OC[C@@H](N1C2CCC1COC2)CO3 [Compound 12, (8S,E)-N4-((1R,4S)-4-(1H-tetrazol-5-yl)cyclohexyl)-8-(3-oxa-8-azabicyclo[3.2.1]octan-8-yl)-1,15-bis(1-ethyl-3-methyl-1H-pyrazole-5-carboxamido)-8,9,16,19-tetrahydro-7H-6,10-dioxa-2,14,15a,19a-tetraazacyclopentadeca[3,2,1-cd:8,9,10-c′d′]diindene-4,12-dicarboxamide sodium salt] | 12.2 ± 0.5 | increase | 4248 ± 706 | 6190 ± 687.0 | 568 ± 48.6 | 1144 ± 128.9 | 16 ± 15.7 pg/mL | 789 ± 378.2 | BLQ | 94 ± 48.3 | 14.2 | 440 ± 50 | 180 ± 50 | 90 ± 20 | 360 ± 130 | 190 ± 80 | 300 ± 120 | 130 ± 40 |  | concentration at 24 h ([3]; plasma, 24 h (Table 4), read-out: Plasma Conc.): 20 nM
2 | CCn1nc(C)cc1C(=O)Nc1nc2cc(C(N)=O)cc3c2n1C/C=C/Cn1c(NC(=O)c2cc(C)nn2CC)nc2cc(C(=O)N[C@H]4CC[C@H](c5nnn[nH]5)CC4)cc(c21)OCCCO3 [Compound 6, (E)-N-((1R,4R)-4-(1H-tetrazol-5-yl)cyclohexyl)-1,15-bis(1-ethyl-3-methyl-1H-pyrazole-5-carboxamido)-8,9,16,19-tetrahydro-7H-6,10-dioxa-2,14,15a,19a-tetraazacyclopentadeca[3,2,1-cd:8,9,10-c′d′]diindene-4,12-dicarboxamide sodium salt] | 13.9 ± 1.3 | increase | 3375 ± 528.4 | 6931 ± 1236.8 | 215 ± 39.9 | 1814 ± 369.3 | BLQ | 1916 ± 842.7 | BLQ | 506 ± 239.1 | 3.5 | 440 ± 140 | 130 ± 60 | 50 ± 10 | 290 ± 120 | 250 ± 40 | 200 ± 50 | 260 ± 30 | 0.01, BLQ, | 
3 | CCn1nc(C)cc1C(=O)Nc1nc2cc(C(N)=O)cc3c2n1C/C=C/Cn1c(NC(=O)c2cc(C)nn2CC)nc2cc(C(=O)NCCCn4cc(C(=O)O)cn4)cc(c21)OCCCO3 [Compound 8, (E)-1-(3-(12-carbamoyl-1,15-bis(1-ethyl-3-methyl-1H-pyrazole-5-carboxamido)-8,9,16,19-tetrahydro-7H-6,10-dioxa-2,14,15a,19a-tetraazacyclopentadeca[3,2,1-cd:8,9,10-c′d′]diindene-4-carboxamido)propyl)-1H-pyrazole-4-carboxylic acid sodium salt] | 15.5 ± 2.2 | increase | 20553 ± 3011.24 | 7975 ± 1164.2 | 307 ± 64.6 | 1182 ± 321.2 | 43 ± 33.5 pg/mL | 284 ± 84.2 | BLQ | 197 ± 84.7 | 5.23 | 40 ± 10 | 20 ± 10 | 20 ± 10 | 90 ± 10 | 60 ± 10 | 60 |  | BLQ | Tumor Conc. ([3]; 24 h (Table 4)): BLQ
